Values joined by “and” are separate entries in the source; they are usually repeats but may differ in a detail not shown here. Equal entries are not always repeated. Where two headings read alike, the source gives them in different places.
Assays:
[1] = system: Pa03C cells; experiment: MTT cytotoxicity, Pa03C cells; type: cell-based; conditions: for cell viability: 1440 min
Procedure: Pa03C cells were seeded in 96-well plates at a density of 4000 cells per well and allowed to adhere for 24 hours. Cells were incubated with drug-free nanocapsules (pEGCGs), free paclitaxel, or EFN nanocapsules of paclitaxel at concentrations ranging from 0.001 to 10 µg/mL calculated by paclitaxel content at 37 °C and 5% CO2 for 24 hr. After the incubation, the cells were washed with PBS 3 times, and 100 μL fresh medium was added to each well. Then, cells were cultured for […] another 24 hours. After incubation, 100 μL fresh medium was changed to each well, and 10 μL MTT was added to each well, followed by a 4 h incubation for cleavage at 37 °C. Then 100 μL isopropanol with 0.04 N HCl was added to each well and mixed thoroughly with the medium by repeated pipetting. The result was read with a test wavelength of 570 nm and a reference wavelength of 630 nm using a Microplate Spectrophotometer. Experiments were performed in triplicate and presented as means±SD.

[2] = cited from earlier work
[3] = system: PANC-1 cells; experiment: MTT cytotoxicity, PANC-1 cells (VPX); type: cell-based, human; conditions: 24 hr
Procedure: (§1) PANC-1 cells were seeded in 96-well plates at a density of 5000 cells per well and allowed to adhere for 24 hours. CAF19 cells were seeded in 96-well plates at a density of 1500 cells per well and allowed to adhere for 24 hours. Cells were incubated with drug-free nanocapsules (pTAs), free drug of VPX, or TFN nanocapsules of VPX at the concentrations ranging from 0.05 to 20 μM calculated by VPX content at 37 °C and 5% CO2 for 24 hr. After the incubation, the cells were washed with PBS 3 times, and 100 μL fresh medium was added to each well. Cells were cultured for another 24 hours. After incubation, 100 μL fresh medium was changed to each well, and 10 μL MTT was added to each well, followed by 4 hr incubation for cleavage at 37 °C. Then 100 μL isopropanol with 0.04 N HCl was added to each well and mixed thoroughly with the medium by repeated pipetting. The result was read with a test wavelength of 570 nm and a reference wavelength of 630 nm using a Microplate Spectrophotometer. Experiments were performed in triplicate and presented as means±SD.

[4] = system: CAF19 cells; experiment: MTT cytotoxicity, CAF19 cells (VPX); type: cell-based; conditions: 24 hr
Procedure: as §1

[5] = system: Pancl cells; experiment: MTT cytotoxicity, Panc1 cells (curcumin); type: cell-based, human; conditions: dosages >40 μM
Procedure: Panc 10.05 or Pancl cells were seeded in 96-well plates at a density of 5,000 cells per well and allowed to adhere overnight. Panc10.05 cells were incubated with drug-free nanocapsules (pTAs), free paclitaxel, or TFN nanocapsules of paclitaxel at the concentrations ranging from 0.001 to 10 μg mL^−1 calculated by paclitaxel content at 37 °C and 5% CO2 for 24 hr. Pancl cells were incubated with pTAs, free curcumin, or TFN nanocapsules of curcumin at the concentration of 5-160 μM calculated by curcumin content at 37 °C and 5% CO2 for 48 hr. After the incubation, the cells were washed with PBS three times, and 100 μL fresh medium was added to each well. Then cells were cultured for another 24 hours. After incubation, 100 μL fresh medium was added to each well, and 10 μL MTT was added to each well, followed by a 4 h incubation for cleavage at 37 °C. Then 100 μL isopropanol with 0.04 N HCl was added to each well and mixed thoroughly with the medium by repeated pipetting. The result was read with a test wavelength of 570 nm and a reference wavelength of 630 nm using a Microplate Spectrophotometer. Experiments were performed in triplicate and presented as means±SD.

For O=C(O[C@@H]1Cc2c(O)cc(O)cc2O[C@@H]1c1cc(O)c(O)c(O)c1)c1cc(O)c(O)c(O)c1 [EGCG, epigallocatechin-3-gallate], the anticancer activity ([1]; EGCG on its own (from EFN cytotoxicity test)) was “significant anticancer activity”.
In the case of CC(=O)O[C@H]1C(=O)[C@@]2(C)[C@H]([C@H](OC(=O)c3ccccc3)[C@]3(O)C[C@H](OC(=O)[C@H](O)[C@@H](NC(=O)c4ccccc4)c4ccccc4)C(C)=C1C3(C)C)[C@]1(OC(C)=O)CO[C@@H]1C[C@@H]2O [free PTX, paclitaxel], the cell viability ([1]; PTX dosages >0.1 g/mL) is listed as ~ 50%, the cell viability ([1]; dosages of 1-10 μg/mL) is listed as ~ 50% and the water solubility ([2]; water) is listed as greater than 1 µg/mL.
In the case of CCOC(=O)N[C@@H]1CC[C@@H]2[C@@H](C1)C[C@H]1C(=O)O[C@H](C)[C@H]1[C@H]2/C=C/c1ccc(-c2cccc(F)c2)cn1 [VPX, vorapaxar], the cell viability ([3]; VPX treatment up to 20 μM) was “above 100%”, the toxicity ([3]; up to 20 μM (VPX content)) was “no toxicity” and the cell viability ([4]; VPX treatment up to 20 μM) was “above 100%”. The toxicity ([4]; up to 20 μM (VPX content)) was “no toxicity” and the water solubility ([2]; VPX) was 1.4 μg/mL and ~ 3 μM.
In the case of COc1cc(/C=C/C(=O)CC(=O)/C=C/c2ccc(O)c(OC)c2)ccc1O [free curcumin, curcumin], the “suppression of cell growth” value [5] was “significant suppression of Pancl growth”.
In the case of C=C1CC[C@H](O)C/C1=C/C=C1\CCC[C@]2(C)[C@@H]([C@H](C)CCCC(C)C)CC[C@@H]12 [VD3, vitamin D], the water solubility ([2]; room temperature) is given as less than 0.001 µg/mL.

Source: patent publication US20260373093A1, “TIMESCALE-GUIDED MICROFLUIDIC SYNTHESIS OF POLYPHENOL-IRON III NETWORK NANOCAPSULES OF HYDROPHOBIC DRUGS” (Purdue Research Foundation, priority 2023, published 2026)
